Source: PMC12304285 (British Journal of Cancer, 2025)
“And” between values parts separate entries of the source, which are not always exact repeats. Identical values can stand only once. “Also recorded” adds a separate entry of the source. Like-named read-outs stand apart in the source and are kept apart here.

Key:
[1] = system: PBMCs collected from patients; test: iMRM-MS of DDR proteins in PBMCs collected from patients on treatment; assay type: in vivo, human; details: doses up to 40 mg
Method: Prior to assessing clinical trial samples, PBMCs from healthy volunteers were treated ex vivo to determine biomarkers modulated by AZD7648. […] Samples were pooled and analysed by iMRM-MS. During the clinical trial, patient blood samples were collected during cycle 1 (day 1 and day 8), cycle 2 (day 1) and at the end of treatment and were analysed by iMRM-MS [20–23]. On-treatment tumour biopsies were optional in the trial protocol and none were collected, so tumour PD studies were not conducted.
Preparation of Clinical PBMCs and iMRM analysis
Blood from patients was drawn into 8 mL Vacutainer CPT tubes (BD) before treatment, 2-8h post dose at C1D1, C1D8, C2D1 and at discontinuation.
After inverting the tube 8 -10 times, it was centrifuged and the PBMC layer transferred into a new tube, washed once with ice cold PBS, centrifuged again to obtain a pellet which was then […]
PBMC pellets were lysed with 8M Urea supplemented with proteases and phosphatases inhibitors, sonicated, clarified by centrifugation and quantified with Micro -BCA assay (Thermo - […]
The samples were quality checked by SDS -PAGE followed by silver staining to evaluate the complexity of the obtained protein extract and assess the presence of most common blood contaminants (hemoglobulin and albumin). […]

[2] = system: patients with advanced cancer
Method: A single dose was administered during Cycle 0 and was followed by a drug washout period lasting 3–7 days. […] If either of these conditions was not met, the cohort would be expanded to a minimum of 3, and up to 6, patients in all subsequent cohorts. A Bayesian adaptive design, using all of the available data and considering the pharmacokinetics (PK) from a minimum of 2 or 3 patients enrolled into each dose cohort, was used from this point. Dose escalation was scheduled to be stopped at the maximum tolerated dose (MTD) (defined as 25% of patients in a cohort experiencing a dose-limiting toxicity [DLT] with the required precision [ratio of upper and lower 95% credible limits <5.0]), the maximum feasible dose (MFD) or the recommended Phase II dose (RP2D). Intra-patient dose escalation was permitted as long as predefined criteria were met, including that the planned next higher dose had to be declared tolerated by the SRC based on assessment of 2–6 evaluable patients.
The starting dose of PLD was 40 mg/m^2 intravenously once every 28 days for a maximum of 6 cycles. PLD dose could be escalated to 50 mg/m^2 or de-escalated to 30 mg/m^2 every 28 days with agreement from the SRC. […] Dose escalation was scheduled to be stopped at the MTD (defined as 30% of patients in a cohort experiencing a DLT with the required precision [ratio of upper and lower 95% credible limits <5.0]). Approximately 30 evaluable patients across five cohorts (n = 3–6 per cohort) were originally planned to provide an estimate of MTD.
Definitions of dose-limiting toxicity
DLTs were evaluated during Cycle 0 and Cycle 1 of treatment. Toxicity was graded according to the National Cancer Institute CTCAE v5.0.
A DLT was defined as an AE that occurs from the first dose of study treatment up to and including Cycle 1, Day 28 (the DLT assessment period) that is assessed as unrelated to the disease, intercurrent illness, or concomitant medications and that, despite optimal therapeutic interventions, meets any of the following criteria:
Haematological Toxicities:
• Grade 4 neutropenia lasting >4 days.
• Grade 4 thrombocytopenia.
• Grade 3 neutropenia (ANC ≥500 to <1000 cells/mm3) of any duration accompanied by fever ≥38.5 °C and/or systemic infection.
• Grade 3 thrombocytopenia (25,000 to <50,000/mm3) with bleeding
Non-haematological toxicities:
• Confirmed laboratory abnormalities
• Nausea or vomiting for more than three consecutive days despite administration of maximal anti-emetic therapy
• Diarrhoea for more than three consecutive days despite administration of maximal anti- […]
• QTc prolongation >500 milliseconds or QTcF prolongation from baseline by 60 milliseconds confirmed on at least two separate ECGs
• Any other toxicity that is greater than at baseline AND is clinically significant and/or […]
AND is judged to be a DLT by the SRC
• Any treatment-related event, including significant dose reductions, omissions or delays, judged to be a DLT by the SRC. Examples may include CTCAE Grade 2 toxicities that are clinically significant and/or unacceptable according to the investigator, toxicities that […]
the administration of study treatment in the subsequent cycle by ≥7 consecutive days DLT will not include the following:
• Transient isolated laboratory abnormalities which are not considered clinically significant and resolve to baseline within 72 hours without any intervention […]
• Toxicity unrelated to treatment e.g., related to the underlying disease or disease-related

Question: `Cc1cc2ncnn2cc1Nc1ncc2c(n1)n(C1CCOCC1)c(=O)n2C` [AZD7648, 7-Methyl-2-[(7-methyl[1,2,4]triazolo[1,5-a]pyridin-6-yl)amino]-9-(tetrahydro-2H-pyran-4-yl)-7,9-dihydro-8H-purin-8-one] was tested. Which “activity on DDR protein markers in patient PBMCs” value [1] did it give?
Answer: Its value is “did not show any activity; also recorded: not biologically active”.

Question: What about the “Any AE leading to death” value ([2]; 5 mg BID (n = 1)) of the same compound?
Answer: Its value is 0 n (%).

Question: And the “Any AZD7648-related AE leading to death” value ([2]; 5 mg BID (n = 1))?
Answer: The value was 0 n (%).

Question: What about the “Any AE leading to death” value ([2]; 5 mg QD (n = 1)) of the same compound?
Answer: The value was 0 n (%).

Question: What about the “Any AZD7648-related AE leading to death” value ([2]; 5 mg QD (n = 1)) of the same compound?
Answer: Its value is 0 n (%).

Question: What about the “Any AE leading to death” value ([2]; 10 mg BID (n = 1)) of the same compound?
Answer: Its value is 0 n (%).

Question: What about the “Any AZD7648-related AE leading to death” value ([2]; 10 mg BID (n = 1)) of the same compound?
Answer: Its value is 0 n (%).

Question: And the “Any AE leading to death” value ([2]; 20 mg BID (n = 1))?
Answer: Its value is 0 n (%).

Question: What about the “Any AZD7648-related AE leading to death” value ([2]; 20 mg BID (n = 1)) of the same compound?
Answer: The value was 0 n (%).

Question: What about the “Any AE leading to death” value ([2]; 40 mg BID (n=3)) of the same compound?
Answer: The value was 0 n (%).

Question: What about the “Any AZD7648-related AE leading to death” value ([2]; 40 mg BID (n=3)) of the same compound?
Answer: Its value is 0 n (%).

Question: What about the “Any AE leading to death” value ([2]; 80 mg BID (n = 4)) of the same compound?
Answer: Its value is 1 (25.0) n (%).

Question: What about the “Any AZD7648-related AE leading to death” value ([2]; 80 mg BID (n = 4)) of the same compound?
Answer: Its value is 0 n (%).

Question: And the “Any AE leading to death” value ([2]; 160 mg BID (n=3))?
Answer: The value was 0 n (%).

Question: What about the “Any AZD7648-related AE leading to death” value ([2]; 160 mg BID (n=3)) of the same compound?
Answer: Its value is 0 n (%).

Question: What about the “TEAE Anaemia” value ([2]; Any grade) of the same compound?
Answer: The value was 4 (28.6) n (%).

Question: And the “TEAE Diarrhoea” value ([2]; Any grade)?
Answer: Its value is 4 (28.6) n (%).

Question: What about the “TEAE Nausea” value ([2]; Any grade) of the same compound?
Answer: The value was 4 (28.6) n (%).

Question: What about the “TEAE Neutropenia” value ([2]; Any grade) of the same compound?
Answer: The value was 2 (14.3) n (%).

Question: And the “TEAE Urinary tract infection” value ([2]; Any grade)?
Answer: Its value is 2 (14.3) n (%).

Question: And the “TEAE Vomiting” value ([2]; Any grade)?
Answer: Its value is 4 (28.6) n (%).

Question: What about the “Any treatment-related grade 3/4 AE, related to AZD7648” value ([2]; all dose levels) of the same compound?
Answer: The value was 4 (28.6) n (%).

Question: And the Death ([2]; all dose levels)?
Answer: The Death was 4 (28.6) n (%).

Question: And the patients with nausea ([2]; all dose levels)?
Answer: Its patients with nausea is 28.6% and ~ 30%.

Question: What about the patients with neutropenia ([2]; all dose levels) of the same compound?
Answer: Its patients with neutropenia is 14.3%.

Question: What about the patients with vomiting ([2]; all dose levels) of the same compound?
Answer: The patients with vomiting was 28.6% and ~ 30%.

Question: And the “Any AE” value ([2]; human, in vivo)?
Answer: The value was 12 (85.7) n (%).

Question: And the “Any DLT” value ([2]; human, in vivo)?
Answer: Its value is 1 (7.1) n (%).

Question: And the “Any SAE” value ([2]; human, in vivo)?
Answer: Its value is 5 (35.7) n (%).

Question: What about the “TEAE Anaemia” value ([2]; human, in vivo) of the same compound?
Answer: The value was 1 (7.1) n (%).

Question: And the “TEAE Diarrhoea” value ([2]; human, in vivo)?
Answer: The value was 1 (7.1) n (%).

Question: And the “TEAE Nausea” value ([2]; human, in vivo)?
Answer: Its value is 0 n (%).

Question: And the “TEAE Neutropenia” value ([2]; human, in vivo)?
Answer: Its value is 1 (7.1) n (%).

Question: And the “TEAE Urinary tract infection” value ([2]; human, in vivo)?
Answer: Its value is 0 n (%).

Question: What about the “TEAE Vomiting” value ([2]; human, in vivo) of the same compound?
Answer: Its value is 0 n (%).

Question: What about the “patients with gastrointestinal disorders” value ([2]; human, in vivo) of the same compound?
Answer: The value was 64.3%.

Question: And the “patients who experienced TEAEs” value ([2]; human, in vivo, 2.9 months)?
Answer: The value was 85.7%.

Question: What about the “patients with abdominal pain” value ([2]; human, in vivo, 2.9 months) of the same compound?
Answer: Its value is ~ 20%.

Question: And the “patients with decreased appetite” value ([2]; human, in vivo, 2.9 months)?
Answer: The value was ~ 20%.

Question: And the patients with fatigue ([2]; human, in vivo, 2.9 months)?
Answer: The patients with fatigue was ~ 20%.

Question: And the “maximum tolerated dose (MTD)” value ([2]; monotherapy, escalation paused at 160 mg BID continuous dosing)?
Answer: The value was “an MTD could not be declared”.

Question: And the “DLT reported (nature)” value ([2]; one patient, AZD7648 160 mg BID)?
Answer: Its value is “grade 4 increased alanine aminotransferase (ALT) and aspartate aminotransferase (AST)”.
